# Calls of active or inactive are those of the source. The rule behind the calls is not given here.
# Experiments:
# [1] = molecular target: T1, M-phase inducer phosphatase 2 (Homo sapiens, UniProt P30305); assay: Inhibition of 6-His-N-terminal tagged human CDC-25B isoform 3 catalytic domain expressed in Escherichia coli BL21 (DE3) cells assessed as pNP formation using pNPP as substrate incubated for 15 mins prior to substrate addition by plate reader analysis
# T1 sequence (P30305 whole entry): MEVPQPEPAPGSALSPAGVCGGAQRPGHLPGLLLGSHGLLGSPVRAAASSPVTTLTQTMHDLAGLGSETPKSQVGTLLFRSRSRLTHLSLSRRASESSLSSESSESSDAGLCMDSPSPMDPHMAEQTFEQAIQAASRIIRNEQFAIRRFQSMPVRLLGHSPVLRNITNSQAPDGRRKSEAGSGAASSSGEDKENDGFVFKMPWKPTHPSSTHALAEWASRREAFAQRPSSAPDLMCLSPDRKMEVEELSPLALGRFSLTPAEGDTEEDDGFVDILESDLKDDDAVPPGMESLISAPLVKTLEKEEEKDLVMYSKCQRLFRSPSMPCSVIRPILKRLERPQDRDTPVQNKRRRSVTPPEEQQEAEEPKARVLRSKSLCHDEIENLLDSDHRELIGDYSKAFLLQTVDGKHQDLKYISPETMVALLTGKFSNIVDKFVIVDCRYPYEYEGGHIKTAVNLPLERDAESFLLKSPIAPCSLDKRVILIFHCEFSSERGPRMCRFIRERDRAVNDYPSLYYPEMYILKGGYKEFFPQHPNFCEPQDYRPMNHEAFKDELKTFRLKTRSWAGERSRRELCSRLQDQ
# [2] = molecular target: T2, Low molecular weight phosphotyrosine protein phosphatase (Homo sapiens, UniProt P24666); assay: Inhibition of full length 6-His-N-terminal tagged human LMW-PTP expressed in Escherichia coli BL21 (DE3) cells assessed as pNP formation using pNPP as substrate incubated for 15 mins prior to substrate addition by plate reader analysis
# T2 sequence (P24666 whole entry): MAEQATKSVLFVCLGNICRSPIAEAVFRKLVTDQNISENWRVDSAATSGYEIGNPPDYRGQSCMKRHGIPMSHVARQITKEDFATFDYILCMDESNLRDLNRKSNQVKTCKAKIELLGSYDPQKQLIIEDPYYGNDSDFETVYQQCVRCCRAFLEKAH
# [3] = Retardation factor of the compound using Hexanes:AcOEt (2:1) as solvent system by column chromatography; assay type: physicochemical
# [4] = molecular target: T3, Tyrosine-protein phosphatase non-receptor type 1 (Homo sapiens, UniProt P18031); assay: Inhibition of 6-His-N-terminal tagged human PTP1B expressed in Escherichia coli BL21 (DE3) cells assessed as pNP formation using pNPP as substrate incubated for 15 mins prior to substrate addition by plate reader analysis
# T3 sequence (P18031 whole entry): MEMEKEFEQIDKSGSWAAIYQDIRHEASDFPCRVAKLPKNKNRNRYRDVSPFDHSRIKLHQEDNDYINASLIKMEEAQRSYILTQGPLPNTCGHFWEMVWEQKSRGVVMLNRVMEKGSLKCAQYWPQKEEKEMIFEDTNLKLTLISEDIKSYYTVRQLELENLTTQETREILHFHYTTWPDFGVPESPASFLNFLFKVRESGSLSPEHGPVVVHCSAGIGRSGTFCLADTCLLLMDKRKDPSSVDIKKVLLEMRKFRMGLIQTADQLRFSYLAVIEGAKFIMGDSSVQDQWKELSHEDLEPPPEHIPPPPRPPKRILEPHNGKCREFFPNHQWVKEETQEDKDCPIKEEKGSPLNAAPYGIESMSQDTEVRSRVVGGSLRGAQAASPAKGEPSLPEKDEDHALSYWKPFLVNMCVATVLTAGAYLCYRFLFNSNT
# [5] = Retardation factor of the compound using Hexanes:AcOEt (1:1) as solvent system by column chromatography; assay type: physicochemical
# [6] = Retardation factor of the compound using Hexanes:AcOEt (1:2) as solvent system by column chromatography; assay type: physicochemical
# [7] = molecular target: T4, Low molecular weight phosphotyrosine protein phosphatase (Homo sapiens) (UniProt P24666); assay: Inhibition of full length 6-His-N-terminal tagged human LMW-PTP expressed in Escherichia coli BL21 (DE3) cells assessed as pNP formation using pNPP as substrate at 100 uM incubated for 15 mins prior to substrate addition by plate reader analysis
# T4 sequence (whole entry): T2 sequence (P24666 whole entry)
# [8] = molecular target: T4, Low molecular weight phosphotyrosine protein phosphatase (Homo sapiens); assay: Mixed type of inhibition of full length 6-His-N-terminal tagged human LMW-PTP expressed in Escherichia coli BL21 (DE3) cells using pNPP as substrate by Lineweaver-Burk plot analysis
# [9] = molecular target: T5, Tyrosine-protein phosphatase non-receptor type 1 (Homo sapiens) (UniProt P18031); assay: Inhibition of 6-His-N-terminal tagged human PTP1B expressed in Escherichia coli BL21 (DE3) cells assessed as pNP formation using pNPP as substrate incubated for 15 mins prior to substrate addition by plate reader analysis in presence of 25 mM ammonium sulfate
# T5 sequence (whole entry): T3 sequence (P18031 whole entry)
# [10] = molecular target: T5, Tyrosine-protein phosphatase non-receptor type 1 (Homo sapiens); assay: Mixed type of inhibition of 6-His-N-terminal tagged human PTP1B expressed in Escherichia coli BL21 (DE3) cells using pNPP as substrate by Lineweaver-Burk plot analysis
# [11] = molecular target: T5, Tyrosine-protein phosphatase non-receptor type 1 (Homo sapiens); assay: Time-dependent inhibition of 6-His-N-terminal tagged human PTP1B expressed in Escherichia coli BL21 (DE3) cells using pNPP as substrate treated with compound prior to substrate addition by plate reader analysis; conditions: TDE = time-dependent effect
# [12] = molecular target: T6, M-phase inducer phosphatase 2 (Homo sapiens) (UniProt P30305); assay: Inhibition of 6-His-N-terminal tagged human CDC-25B isoform 3 catalytic domain expressed in Escherichia coli BL21 (DE3) cells assessed as pNP formation using pNPP as substrate at 100 uM incubated for 15 mins prior to substrate addition by plate reader analysis
# T6 sequence (whole entry): T1 sequence (P30305 whole entry)
# [13] = Retardation factor of the compound using Hexanes:AcOEt (7:3) as solvent system by column chromatography; assay type: physicochemical
# [14] = Retardation factor of the compound using CHCl3:MeOH (9:1) as solvent system by column chromatography; assay type: physicochemical
# [15] = molecular target: T5, Tyrosine-protein phosphatase non-receptor type 1 (Homo sapiens); assay: Binding affinity to 6-His-N-terminal tagged human PTP1B expressed in Escherichia coli BL21 (DE3) cells assessed as protein aggregate formation up to 100 uM after 1 hr by native PAGE analysis
# [16] = molecular target: Lysozyme C (Gallus gallus) (UniProt P00698); assay: Binding affinity to hen egg lysozyme after 3 hrs by tryptophan emission monitoring analysis
# Chain of Lysozyme C (Gallus gallus) (P00698 whole entry): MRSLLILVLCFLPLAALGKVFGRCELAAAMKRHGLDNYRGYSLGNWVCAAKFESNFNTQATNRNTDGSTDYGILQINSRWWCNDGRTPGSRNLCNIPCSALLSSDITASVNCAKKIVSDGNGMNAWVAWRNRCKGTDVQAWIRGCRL
# [17] = molecular target: T4, Low molecular weight phosphotyrosine protein phosphatase (Homo sapiens); assay: Binding affinity to full length 6-His-N-terminal tagged human LMW-PTP expressed in Escherichia coli BL21 (DE3) cells assessed as protein aggregate formation up to 100 uM after 1 hr by native PAGE analysis
# [18] = molecular target: T4, Low molecular weight phosphotyrosine protein phosphatase (Homo sapiens); assay: Inhibition of full length 6-His-N-terminal tagged human LMW-PTP expressed in Escherichia coli BL21 (DE3) cells assessed as pNP formation using pNPP as substrate at 100 uM by plate reader analysis in presence of 50 mM MgCl2
# [19] = molecular target: T4, Low molecular weight phosphotyrosine protein phosphatase (Homo sapiens); assay: Binding affinity to full length 6-His-N-terminal tagged human LMW-PTP expressed in Escherichia coli BL21 (DE3) cells after 3 hrs by tryptophan emission monitoring analysis
# [20] = molecular target: T6, M-phase inducer phosphatase 2 (Homo sapiens); assay: Inhibition of 6-His-N-terminal tagged human CDC-25B isoform 3 catalytic domain expressed in Escherichia coli BL21 (DE3) cells assessed as pNP formation using pNPP as substrate at 100 uM by plate reader analysis in presence of 50 mM MgCl2
# [21] = molecular target: T5, Tyrosine-protein phosphatase non-receptor type 1 (Homo sapiens); assay: Binding affinity to 6-His-N-terminal tagged human PTP1B expressed in Escherichia coli BL21 (DE3) cells after 3 hrs by tryptophan emission monitoring analysis
# [22] = molecular target: T5, Tyrosine-protein phosphatase non-receptor type 1 (Homo sapiens); conditions: BL21-DE3, 5 uM
# Description: Reversible inhibition of 6-His-N-terminal tagged human PTP1B expressed in Escherichia coli BL21 (DE3) cells using pNPP as substrate at 5 uM incubated for 15 mins prior to substrate addition measured after drug wash out by plate reader analysis
# Albumin = Albumin (Bos taurus, UniProt P02769); assay: Binding affinity to bovine serum albumin after 3 hrs by tryptophan emission monitoring analysis; conditions: cattle
# Chain of Albumin (P02769 whole entry): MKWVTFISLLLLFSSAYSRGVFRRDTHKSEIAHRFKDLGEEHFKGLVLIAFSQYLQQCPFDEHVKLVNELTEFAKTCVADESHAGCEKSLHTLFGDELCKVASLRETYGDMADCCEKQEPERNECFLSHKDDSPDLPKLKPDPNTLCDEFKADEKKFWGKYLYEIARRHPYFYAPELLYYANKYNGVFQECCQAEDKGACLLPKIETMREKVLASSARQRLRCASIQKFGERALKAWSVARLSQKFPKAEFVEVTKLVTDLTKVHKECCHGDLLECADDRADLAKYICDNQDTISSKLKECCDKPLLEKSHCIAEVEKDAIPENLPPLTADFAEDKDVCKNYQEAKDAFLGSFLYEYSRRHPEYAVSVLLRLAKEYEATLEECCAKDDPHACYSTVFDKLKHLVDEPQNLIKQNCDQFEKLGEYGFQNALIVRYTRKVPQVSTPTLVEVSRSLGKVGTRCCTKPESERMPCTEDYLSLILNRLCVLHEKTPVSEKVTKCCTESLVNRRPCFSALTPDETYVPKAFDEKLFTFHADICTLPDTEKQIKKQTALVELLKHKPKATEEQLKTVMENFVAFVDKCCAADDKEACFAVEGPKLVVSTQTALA
Structure (SMILES),IC50 [1] [µM],IC50 [2] [µM],IC50 [4] [µM],further results
CCCCCCCCCC(=O)C1=C(O)OC(C)(C)OC1=O,> 100,> 100,28.7,Rf [3]: 0.49
CC(C)C(=O)C1=C(O)OC(C)(C)OC1=O,> 100,–,72.7,Rf [6]: 0.5; inhibition [7]: inactive
CCCCCCCCCCCCCCCC(=O)C1=C(O)OC(C)(C)OC1=O,13.7,22,1,inhibition [8]: Active; inhibition [9]: inactive; inhibition [10]: Active; inhibition [11]: tde; Rf [5]: 0.5
CC(=O)C1=C(O)OC(C)(C)OC1=O,–,–,> 100,inhibition [12]: inactive; inhibition [7]: inactive
CCCCCCCCCCCCCCCC(=O)C1=C(O)CC(COCc2ccccc2)OC1=O (stereo unspecified),7.2,> 100,5.6,Rf [13]: 0.71
CCCCCCCCCCCCCCCC(=O)C1=C(O)CC(CO)OC1=O (stereo unspecified),13.6,> 100,15.6,inhibition [8]: Active; inhibition [10]: Active; Rf [14]: 0.5; inhibition [11]: tde
CCCC(=O)C1=C(O)OC(C)(C)OC1=O,–,–,> 100,Rf [6]: 0.47; inhibition [12]: inactive; inhibition [7]: inactive
CCCCCCCCCCCCCCCC(=O)C1=C(O)OC2(CCCC2)OC1=O,7,9.6,0.8,Rf [3]: 0.59
CCCCCCCCCCCCCCCC(=O)OC1=CC(=O)OC(COCc2ccccc2)C1 (stereo unspecified),> 100,> 100,8.2,Activity [15]: inactive; Activity [16]: Active; Activity [17]: inactive; Rf [13]: 0.72; Activity [19]: Active; Activity [21]: Active; Activity (Albumin): Active
CCCCCCCCCCCCCCCC(=O)C1=C(O)OC(CC)(CC)OC1=O,4.6,> 100,1.1,Rf [3]: 0.59

# Further molecules by falling IC50 [4], results first:
IC50 [1] [µM],IC50 [2] [µM],IC50 [4] [µM],Structure (SMILES),further results
5.5,29.3,0.8,CCCCCCCCCCCCCCCC(=O)C1=C(O)OC(C)(CC)OC1=O (stereo unspecified),Rf [3]: 0.42
12.4,8.6,0.7,CCCCCCCCCCCCCCCC(=O)C1=C(O)C(CO)OC1=O (racemic),inhibition [8]: Active; Activity [15]: Active; Activity [16]: Active; Activity [17]: Active; inhibition [18]: inactive; inhibition [9]: inactive; Activity [19]: Active; inhibition [10]: Active; inhibition [11]: tde; inhibition [20]: inactive; Activity [21]: Active; inhibition [22]: Active; Activity (Albumin): Active
6.5,5.3,0.6,CCCCCCCCCCCCCCCCCC(=O)C1=C(O)OC(C)(C)OC1=O,Rf [5]: 0.51
6.3,10.1,0.5,CCCCCCCCCCCCCCCC(=O)C1=C(O)C(COC(=O)c2ccccc2C(=O)c2ccccc2)OC1=O (stereo unspecified),–
8,3.3,0.4,CCCCCCCCCCCCCCCC(=O)C1=C(O)C(COS(C)(=O)=O)OC1=O (stereo unspecified),–
7.4,2.5,0.4,C=C1OC(=O)C(C(=O)CCCCCCCCCCCCCCC)=C1O,–
10.8,10,0.4,CCCCCCCCCCCCCCCC(=O)C1=C(O)C(COC(C)=O)OC1=O (stereo unspecified),–
5.9,3.8,0.3,CCCCCCCCCCCCCCCC(=O)C1=C(O)C(COC(=O)c2ccc(C(=O)c3ccccc3)cc2)OC1=O (stereo unspecified),–

# Source: ChEMBL document CHEMBL3425400, “Is RK-682 a promiscuous enzyme inhibitor? Synthesis and in vitro evaluation of protein tyrosine phosphatase inhibition of racemic RK-682 and analogues” (Eur J Med Chem, 2015)
